Measurements as given in patent US7557133B2, “Caspase inhibitors containing isoxazoline ring” (LG Life Sciences Ltd., priority 2003, dated 2009).

Key:
caspase-8 = target: T1, caspase-8 (Homo sapiens, UniProt Q14790); test: Caspase-8 inhibitory effect (fluorescent substrate AcDEVD-AFC); assay type: biochemical; settings: 25° C., 50 μM AcDEVD-AFC, 2.1 nM caspase-8; for kinact/KI: pH 7.5, read-out: Caspase-8 Kobs/[I] (converted)
T1 construct: p10 and p20 subunits (Thornberry, N. A. et al, Nature, 1992, 356, 768) were expressed in E. coli; made in house; host or cells: E. coli
Protocol: Caspase-1 and caspase-8 known as cysteine proteases in the form of α2β2 were expressed, purified, and activated by modifying a method known in Thornberry, N. A. et al, Nature, 1992, 356, 768. Thornberry, N. A. Methods in Enzymology, 1994, 244, 615. Walker, N. P. C. et al. Cell, 1994, 78, 343, and caspase-9 was also purified by a similar method, and the inhibitory activity against them was tested. Briefly describing, p10 and p20 subunits (Thornberry, N. A. et al, Nature, 1992, 356, 768) were expressed in E. coli and purified by nickel column and anionic exchange chromatography to give caspase-1, caspase-8 and caspase-9. The fluorescent substrate AcYVAD-AFC for thus obtained caspase-1, AcDEVD-AFC for caspase-8, and AcLEHD-AFC for caspase-9 were used for determining specific activity of the synthesized inhibitors. The enzyme reaction was carried out at 25° C. with various concentrations of the inhibitors in a buffer solution containing 50 mM HEPES(pH 7.50), 10% (w/v) sucrose, 0.1% (w/v) CHAPS, 100 mM NaCl, 1 mM EDTA, and 10 mM DTT in the presence of 50 μM AcYVAD-AFC for 10 nM caspase-1, 50 μM AcDEVD-AFC for 2.1 nM caspase-8, and 150 μM AcLEHD-AFC for 200 nM caspase-9. The inhibitory constants Ki and Kobs of the inhibitors were determined by measuring the reaction velocity with the time lapse using a fluorescent spectrometer and by obtaining the initial rate constant. Ki was calculated from the Lineweaver Burk Plot, and Kobs from the following Equation 1. Kobs=−ln(1−At/Aoo)/t Equation 1
At means cleavate rate (%) at time t, and
Aoo means the maximum cleavage rate (%).
Spectra MAX GeminiXS Fluorescent Spectrometer of Molecular Device Co. was used at the excitation wavelength of 405 nm and the emission wavelength of […].

[1] = tested on: Jurkat cell (ATCC TIB-152); test: Jurkat cell apoptosis by Fas antibody, WST-1 method; assay type: cell-based; settings: apoptosis using Fas antibody, WST-1; for IC50: Homo sapiens, Jurkat
Protocol: The […] inhibitory activity of the inhibitors was determined by subjecting Jurkat cell (ATCC TIB-152) to apoptosis using Fas antibody (Upstate Biotech 05-201) and by detecting the color change according to the WST-1 method known in Francoeur A. M. and Assalian A. (1996) Biochemica 3, 19-25 to observe the amount of alive Jurkat cells when the cells were treated by the inhibitor. Spectra MAX 340 Spectrometer of Molecular Device Co. was used at the absorbance wavelength of 440 nm.

T1 sequence (Q14790 217-374 limits assumed, species assumed): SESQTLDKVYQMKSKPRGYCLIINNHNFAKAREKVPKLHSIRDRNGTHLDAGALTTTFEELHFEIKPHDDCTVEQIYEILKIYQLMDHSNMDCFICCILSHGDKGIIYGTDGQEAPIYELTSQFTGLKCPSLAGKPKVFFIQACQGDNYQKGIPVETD
T1 sequence (Q14790 385-479 limits assumed, species assumed): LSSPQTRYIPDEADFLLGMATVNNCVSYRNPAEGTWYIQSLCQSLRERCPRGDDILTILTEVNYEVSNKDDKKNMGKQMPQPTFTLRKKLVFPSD

Row | kinact/KI (caspase-8) [M⁻¹ s⁻¹] | IC50 [1] [µM] | Jurkat cell IC50 [1] | Caspase-8 Kobs/[I] (caspase-8) | SMILES
1 | 3000 | 0.33 | – | – | CCC1(C(=O)NC(CC(=O)O)C(=O)CF)CC(c2ccccc2C(C)C)=NO1 (centres unmarked) [Iaa1, 3-({[5-Ethyl-3-(2-isopropylphenyl)-4,5-dihydro-5-isoxazolyl]carbonyl}amino)-5-fluoro-4-oxopentanoic acid]
2 | 5330 | 0.56 | – | – | CCC1(C(=O)NC(CC(=O)O)C(=O)CF)CC(c2cccc(C(C)(C)C)c2)=NO1 (centres unmarked) [Iaa2, 3-[({3-[3-(tert-Butyl)phenyl]-5-ethyl-4,5-dihydro-5-isoxazolyl}carbonyl)amino]-5-fluoro-4-oxopentanoic acid]
3 | 2330 | 2.65 | – | – | CCC1(C(=O)NC(CC(=O)O)C(=O)CF)CC(c2ccc(C(C)(C)C)cc2)=NO1 (centres unmarked) [Iaa3, 3-[({3-[4-(tert-Butyl)phenyl]-5-ethyl-4,5-dihydro-5-isoxazolyl}carbonyl)amino]-5-fluoro-4-oxopentanoic acid]
4 | 8330 | 0.67 | – | – | CC(C)c1ccccc1C1=NO[C@@](C(=O)NC(CC(=O)O)C(=O)CF)(C(C)C)C1 (stereo partly drawn) [Iaa4, 5-Fluoro-3-({[(5R)-5-isopropyl-3-(2-isopropylphenyl)-4,5-dihydro-5-isoxazolyl]carbonyl}amino)-4-oxopentanoic Acid]
5 | 5000 | 0.3 | – | – | CC(C)[C@@]1(C(=O)NC(CC(=O)O)C(=O)CF)CC(c2cccc(C(C)(C)C)c2)=NO1 (stereo partly drawn) [Iaa5, 3-[({(5R)-3-[3-(tert-butyl)phenyl]-5-isopropyl-4,5-dihydro-5-isoxazolyl}carbonyl)amino]-5-fluoro-4-oxopentanoic acid]
6 | 3330 | 2.45 | – | – | CC(C)C1(C(=O)NC(CC(=O)O)C(=O)CF)CC(c2cccc(-c3ccccc3)c2)=NO1 (centres unmarked) [Iaa6, 3-{[(3-[1,1′-biphenyl]-3-yl-5-isopropyl-4,5-dihydro-5-isoxazolyl)carbonyl]amino}-5-fluoro-4-oxopentanoic acid]
7 | 733 | 2.27 | – | – | CCC1(C(=O)NC(CC(=O)O)C(=O)CF)CC(c2ccccn2)=NO1 (centres unmarked) [Iaa7, 3-({[5-Ethyl-3-(2-pyridinyl)-4,5-dihydro-5-isoxazolyl]carbonyl}amino)-5-fluoro-4-oxopentanoic Acid]
8 | 7500 | 0.7 | – | – | CCC1(C(=O)NC(CC(=O)O)C(=O)CF)CC(c2cc(C(C)(C)C)ccn2)=NO1 (centres unmarked) [Iaa8, 3-[({3-[4-(tert-Butyl)-2-pyridinyl]-5-ethyl-4,5-dihydro-5-isoxazolyl}carbonyl)amino]-5-fluoro-4-oxopentanoic Acid]
9 | 3830 | 1.24 | – | – | CC(C)[C@@]1(C(=O)NC(CC(=O)O)C(=O)CF)CC(c2cc(C(C)(C)C)ccn2)=NO1 (stereo partly drawn) [Iaa9, 3-[({(5R)-3-[4-(tert-butyl)-2-pyridinyl]-5-isopropyl-4,5-dihydro-5-isoxazolyl}carbonyl)amino]-5-fluoro-4-oxopentanoic acid]
10 | 2500 | 1.02 | – | – | CCC1(C(=O)NC(CC(=O)O)C(=O)CF)CC(c2cc(CC(C)C)ccn2)=NO1 (centres unmarked) [Iaa10, 3-({[5-Ethyl-3-(4-isobutyl-2-pyridinyl)-4,5-dihydro-5-isoxazolyl]carbonyl}amino)-5-fluoro-4-oxopentanoic acid]
11 | 1070 | 31 | – | – | CCC1(C(=O)NC(CC(=O)O)C(=O)CF)CC(c2cc(C(C)=O)ccn2)=NO1 (centres unmarked) [Iaa11, 3-({[3-(4-Acetyl-2-pyridinyl)-5-ethyl-4,5-dihydro-5-isoxazolyl]carbonyl}amino)-5-fluoro-4-oxopentanoic acid]
12 | 3170 | 0.7 | – | – | CCC1(C(=O)NC(CC(=O)O)C(=O)CF)CC(c2cc(C3CC3)ccn2)=NO1 (centres unmarked) [Iaa12, 3-({[3-(4-Cyclopropyl-2-pyridinyl)-5-ethyl-4,5-dihydro-5-isoxazolyl]carbonyl}amino)-5-fluoro-4-oxopentanoic acid]
13 | 5170 | 0.35 | – | – | CCC1(C(=O)NC(CC(=O)O)C(=O)CF)CC(c2cc(C3CCCC3)ccn2)=NO1 (centres unmarked) [Iaa13, 3-({[3-(4-Cyclopentyl-2-pyridinyl)-5-ethyl-4,5-dihydro-5-isoxazolyl]carbonyl}amino)-5-fluoro-4-oxopentanoic Acid]
14 | 6830 | 0.79 | – | – | CC(C)[C@@]1(C(=O)NC(CC(=O)O)C(=O)CF)CC(c2cc(C3CCCC3)ccn2)=NO1 (stereo partly drawn) [Iaa14, 3-({[(5R)-3-(4-cyclopentyl-2-pyridinyl)-5-isopropyl-4,5-dihydro-5-isoxazolyl]carbonyl}amino)-5-fluoro-4-oxopentanoic Acid]
15 | 7170 | 0.72 | – | – | CCC1(C(=O)NC(CC(=O)O)C(=O)CF)CC(c2cc(C3CCCCC3)ccn2)=NO1 (centres unmarked) [Iaa15, 3-({[3-(4-Cyclohexyl-2-pyridinyl)-5-ethyl-4,5-dihydro-5-isoxazolyl]carbonyl}amino)-5-fluoro-4-oxopentanoic Acid]
16 | 10300 | 0.73 | – | – | CCC1(C(=O)NC(CC(=O)O)C(=O)CF)CC(c2nccc3c2CCCC3)=NO1 (centres unmarked) [Iaa16, 3-({[5-Ethyl-3-(5,6,7,8-tetrahydro-1-isoquinolinyl)-4,5-dihydro-5-isoxazolyl]carbonyl}amino)-5-fluoro-4-oxopentanoic acid]
17 | 3000 | 1.14 | – | – | CC(C)C1(C(=O)NC(CC(=O)O)C(=O)CF)CC(c2cc(-c3ccccc3)ccn2)=NO1 (centres unmarked) [Iaa17, 5-Fluoro-3-({[5-isopropyl-3-(4-phenyl-2-pyridinyl)-4,5-dihydro-5-isoxazolyl]carbonyl}amino)-4-oxopentanoic Acid]
18 | 8670 | 1.5 | – | – | CC(C)[C@@]1(C(=O)N[C@@H](CC(=O)O)C(=O)COP(=O)(c2ccccc2)c2ccccc2)CC(c2nccc3ccccc23)=NO1 [Iaa18, (3S)-5-[(diphenylphosphoryl)oxy]-3-({[(5R)-5-isopropyl-3-(1-isoquinolinyl)-4,5-dihydro-5-isoxazolyl]carbonyl}amino)-4-oxopentanoic acid]
19 | 267 | – | No Activity | – | CC(C)[C@@]1(C(=O)N[C@@H](CC(=O)O)C(=O)COc2cc(C(F)(F)F)nn2-c2ccccc2)CC(c2nccc3ccccc23)=NO1 [Iaa19, (3S)-3-({[(5R)-5-isopropyl-3-(1-isoquinolinyl)-4,5-dihydro-5-isoxazolyl]carbonyl}amino)-4-oxo-5-{[1-phenyl-3-(trifluoromethyl)-1H-pyrazol-5-yl]oxy}pentanoic acid]
20 | – | – | – | No Activity | C=CC(=O)[C@H](CC(=O)O)NC(=O)[C@]1(C(C)C)CC(c2nccc3ccccc23)=NO1 [Iaa22, (3S)-3-({[(5R)-5-isopropyl-3-(1-isoquinolinyl)-4,5-dihydro-5-isoxazolyl]carbonyl}amino)-4-oxo-5-hexenoic acid]
21 | – | – | – | No Activity | CCC1(C(=O)N[C@@H](CC(=O)O)C(=O)COc2ccccn2)CC(c2ccccc2C(C)C)=NO1 (stereo partly drawn) [Iaa24, (3S)-3-({[5-ethyl-3-(2-isopropylphenyl)-4,5-dihydro-5-isoxazolyl]carbonyl}amino)-4-oxo-5-(2-pyridinyloxy)pentanoic Acid]
22 | 383000 | – | – | – | CC(C)[C@@]1(C(=O)N[C@@H](CC(=O)O)C(=O)CF)CC(c2nccc3ccccc23)=NO1 [Iii-1, (3S)-5-fluoro-3-({[(5R)-5-isopropyl-3-(1-isoquinolinyl)-4,5-dihydro-5-isoxazolyl]carbonyl}amino)-4-oxopentanoic acid]
23 | 7830 | – | – | – | CC(C)[C@@]1(C(=O)N[C@H](CC(=O)O)C(=O)CF)CC(c2nccc3ccccc23)=NO1 [Iii-2, (3R)-5-fluoro-3-({[(5R)-5-isopropyl-3-(1-isoquinolinyl)-4,5-dihydro-5-isoxazolyl]carbonyl}amino)-4-oxopentanoic acid]
24 | – | – | No Activity | – | CCOC(=O)/C=C/[C@H](CC(=O)O)NC(=O)[C@]1(C(C)C)CC(c2nccc3ccccc23)=NO1 [Irr, (3S,4E)-6-ethoxy-3-({[(5R)-5-isopropyl-3-(1-isoquinolinyl)-4,5-dihydro-5-isoxazolyl]carbonyl}amino)-6-oxo-4-hexenoic Acid]
25 | – | – | No Activity | – | CC(C)[C@@]1(C(=O)N[C@H](/C=C/S(C)(=O)=O)CC(=O)O)CC(c2nccc3ccccc23)=NO1 [Iss, (3S,4E)-3-({[(5R)-5-isopropyl-3-(1-isoquinolinyl)-4,5-dihydro-5-isoxazolyl]carbonyl}amino)-5-(methylsulfonyl)-4-pentenoic acid]
